Article PMC3282108 (ACS Chemical Biology, 2008)

Columns and labels:
[1] = system: Hsp70; assay: Western blot of Hsp70 levels in BT474 and SKBR3 cells; format: cell-based, human; settings: 17-AAG 0.178 μM, compound 8 1 or 5 μM
[2] = cited from earlier work
[3] = system: HER2; assay: Western blot of HER2 levels in BT474 cells; format: cell-based, human; settings: compound 8 1 μM, 6, 12, 24 h, 17-AAG 0.178 μM
[4] = system: BT474 breast cancer cells; assay: WST-1 colorimetric cell proliferation assay, BT474; format: cell-based, human; settings: WST-1, concentration-dependent cell killing
[5] = system: cancer patients; settings: cited from earlier work

Compound: C=CCNC1=C2C[C@@H](C)C[C@H](OC)[C@H](O)[C@@H](C)/C=C(\C)[C@H](OC(N)=O)[C@@H](OC)/C=C\C=C(/C)C(=O)NC(=CC1=O)C2=O [Compound 17-AAG, 17-Allylamino-17-demethoxygeldanamycin]
- Hsp70 levels [1]: significant increase in Hsp70 levels
- solubility in aqueous solution [2]: low solubility in aqueous solution
- HER2 levels in BT474 cells [3]: time-dependent decrease in HER2 levels
- cell killing selectivity, BT474 versus SKBR3 and MCF-12F [4]: significantly more potent in killing BT474 cells than SKBR3 and normal cells
- most common dose-limiting side effects [5]: anorexia, nausea, diarrhea, hepatoxicity, fatigue, thrombocytopenia, and anemia
